According to US9606124B2, “Methods of detecting and treating stem-cell containing solid tumors” (The Regents of The University of Michigan, priority 2008, dated 2017):
Entries after “also recorded” stand apart in the source; their conditions may differ.

Columns and labels:
[1] = tested on: FAK Tyr397 and AKT Ser473 phosphorylation; assay: Western blotting of FAK/AKT activation in MDA-MB-453; type: cell-based, human
Method: (§1) Western blotting. Cells were lysed in a laemmli buffer and loaded onto SDS-polyacrylamide gels. Blots were incubated with the respective primary antibodies diluted in TBST (containing 0.1% Tween20 and 2% BSA) either overnight at 4o, or 2 hours at room temperature. Blots were washed and incubated with appropriate secondary antibodies (GE Healthcare, UK) and detected using SuperSignal West Pico Chemiluminescent Substrate (Pierce).

[2] = tested on: FAK Tyr397 and AKT Ser473 phosphorylation; assay: Western blotting of FAK/AKT activation in SUM159; type: cell-based, human; conditions: 100 nM, two days
Method: as §1

phospho-AKT = assay: Immunohistochemistry of phospho-AKT in xenotransplants; design: species or system NOD/SCID mice; conditions: mouse, in vivo
Method: (§2) Immunostaining. For immunofluorescent staining, sorted CXCR1-positive cells were fixed with 95% methanol at −20° C. for 10 minutes. Cells were rehydrated in PBS and incubated with respective antibodies at room temperature for 1 hour. Primary antibodies used were P-FAK (1:50, Cell Signaling Technology), P-AKT (1:300, Cell Signaling Technology), and FOXO3a (1:250, Cell Signaling Technology). Slides were then washed and incubated 30 minutes with PE conjugated secondary antibodies (Jackson labs). The nuclei were counterstained with DAPI/antifade (Invitrogen) and coverslipped. […] Immunohistochemistry for the detection of ALDH1 (1:100, BD biosciences), P-FAK, P-AKT, FOXO3a expression was done on paraffin section (Ginestier et al. Am. J Pathol. 161:1223-1233, herein incorporated by reference in its entirety). Staining was done utilizing the Histostainplus kit (Zymed laboratories). Diaminobenzidine (DAB) or 3-amino-9-ethylcarbazole (AEC) was used as chromogen and sections were counterstained with hematoxylin.

ALDH1 = assay: Immunohistochemistry of ALDH1 in xenotransplants; type: in vivo, NOD/SCID mice; conditions: compared to untreated tumors
Method: as §2

phospho-FAK = assay: Immunohistochemistry of phospho-FAK in xenotransplants; design: species or system NOD/SCID mice; conditions: mouse, in vivo
Method: as §2

[3] = tested on: normal mammary epithelial cells from reduction mammoplasties; assay: MTT assay on normal mammary epithelial cells; type: cell-based, human; conditions: adherent; five days; repertaxin 100 nM or 500 nM, FAS agonist 500 ng/ml
Method: Dissociation of mammary tissue. 100-200 g of normal breast tissue from reduction mammoplasties was minced with scalpels, dissociated enzymatically, and single cells were cultured in suspension to generate mammospheres or on a collagen substratum in adherent condition to induce cellular differentiation (Dontu et al. Genes Dev. 17:1253-1270, herein incorporated by reference in its entirety).
Cell viability. […] After one day, treatment with repertaxin was started. […]. […] Nuclei were counterstained with DAPI/antifade (Invitrogen).

[4] = tested on: CXCR1-positive population of SUM159 cells; assay: Flow cytometry of the CXCR1-positive population of SUM159 cells; type: cell-based, human; conditions: repertaxin, repertaxin plus anti-FAS-ligand, FAS agonist
Method: (§3) Flow cytometry analysis. […] CD95/FAS staining were performed utilizing an anti-CD95 labeled APC (1:20, BD biosciences). […] Fresh cells were stained with 1 μg/ml PI (Sigma) for 5 min for viability.

FOXO3A = assay: Immunofluorescence staining of FOXO3A localization in SUM159 cells; type: cell-based, human
Method: The non-treated SUM159 cells presented 80% of cells positive in the cytoplasm for FOXOA3. […] The change in FOXOA3 cellular localation from the cytoplasm to the nucleus indicates an activation of FOXOA3 protein.
as §2

[5] = tested on: ALDEFLUOR-positive population of HCC1954; assay: ALDEFLUOR assay on HCC1954 cells in vitro; type: cell-based, human; conditions: three days, repertaxin 100 nM, antibodies 10 μg/ml
Method: (§4) ALDEFLUOR assay. […] In order to eliminate cells of mouse origin from the xenotransplanted tumors, cell population was stained with an anti-H2Kd antibody (BD biosciences, 1/200, 20 min on ice) followed by staining with a secondary antibody labeled with phycoerythrin (PE) (Jackson labs, 1/250, 20 min on ice).

MDA-MB-453 cells = assay: Metastasis formation after intracardiac injection of MDA-MB-453 cells (bioluminescence); type: in vivo, NOD/SCID mice; conditions: 250,000 cells intracardiac, repertaxin 15 mg/kg s.c. twice a day 28 days vs saline
Method: (§5) Intracardiac inoculation. […] Twelve hours after intracardiac injections, mice were begun on twice per day repertaxin injections or saline for the controls. Bioluminescence detection. Baseline bioluminescence was assessed before inoculation and each week thereafter inoculations. Bioluminescence detection procedures was performed as previously described ([…] et al. Cancer Res. 69:1302-1313, herein incorporated by reference in its entirety). Normalized photon flux represents the ratio of the photon flux detected each week after inoculations and the photon flux detected before inoculation.

HCC1954 cells [6] = assay: Metastasis formation after intracardiac injection of HCC1954 cells (bioluminescence); type: in vivo, NOD/SCID mice; conditions: 250,000 cells intracardiac, repertaxin 15 mg/kg s.c. twice a day 28 days vs saline
Method: as §5

[7] = tested on: CD44+/CD24- cell population of MC1, UM2, UM3 xenografts; assay: CD44+/CD24- cells in treated tumors (flow cytometry); design: species or system NOD/SCID mice; conditions: mouse, in vivo
Method: Animal model. […] Cells from these tumors were transplanted orthotopically in the humanized cleared fat-pad of NOD/SCID mice, without cultivation in vitro. […] 50,000 cells from each xenotransplants were injected in the humanized fat pad of NOD/SCID mice and monitored the tumor growth. […] The animals were euthanized when the tumors were approximately 1.5 cm in the largest diameter, to avoid tumor necrosis and in compliance with regulations for use of vertebrate animal in research. A portion of each fat pad injected was fixed in formalin and embedded in paraffin for histological analysis. The rest of the tumor cells were re-implantated into secondary NOD/SCID mice. Serial dilutions of cells were utilized for the re-implantation with injection of 10,000, 1,000, and 100 cells for each treated tumor.
as §3

[8] = tested on: ALDEFLUOR-positive population of MDA-MB-453; assay: ALDEFLUOR assay on MDA-MB-453 cells in vitro; type: cell-based, human; conditions: three days, repertaxin 100 nM, antibodies 10 μg/ml
Method: as §4

HCC1954 cells [9] = assay: MTT assay, cell viability of HCC1954 cells; type: cell-based, human; conditions: repertaxin 100 nM, antibodies 10 μg/ml
Source text: Cell viability. […] Nuclei were counterstained with DAPI/antifade (Invitrogen).

SUM159 cell line = assay: MTT assay, cell growth / cell viability of SUM159 cells
Method: After 4 days of treatment, the effect on cell growth was analyzed using the MTT assay (FIG. 5A) and on the cancer stem cell population using the ALDEFLUOR assay (FIG. 5B).

Compound: CC(C)Cc1ccc([C@@H](C)C(=O)NS(C)(=O)=O)cc1 [Repertaxin]
- FAK Tyr397 and AKT Ser473 phosphorylation (western blot) [1]: No modification
- FAK Tyr397 and AKT Ser473 phosphorylation (western blot) [2]: decrease in FAK Tyr397 and AKT Ser473 phosphorylation
- FAK Tyr397 and AKT Ser473 phosphorylation (western blot) ([2]; listed as repertaxin): decrease in FAK Tyr^397 and AKT Ser^473 phosphorylation
- cells expressing phospho-AKT in treated tumors (phospho-AKT): complete inhibition; also recorded: no expression was detected
- ALDH1-positive cells / ALDH1 expression in treated tumors (ALDH1): decrease in ALDH1-positive cells; also recorded: decrease of ALDH1 expression
- cells with membranous phospho-FAK expression in treated tumors (phospho-FAK): abolished; also recorded: no expression was detected
- viability of normal mammary epithelial cells (MTT) [3]: no effect
- percent of CXCR1-positive cells [4]: massive decrease
- cells positive in the nucleus for FOXOA3 (FOXO3A; SUM159, 100 nM, 2 days): 80%
- FOXO3A localization (immunofluorescence) (FOXO3A; sorted CXCR1-positive cells, listed as repertaxin): shuttled to the nucleus; also recorded: re-localization of FOXO3A to the nucleus
- ALDEFLUOR-positive population [5]: significant reduction
- metastasis formation (normalized photon flux) (MDA-MB-453 cells): did not have any effect on metastasis formation
- metastasis formation (normalized photon flux) (HCC1954 cells [6]): significantly reduced metastasis formation
- metastasis formation (normalized photon flux) (HCC1954 cells [6]; listed as repertaxin): statistically significant decrease in metastasis formation
- percent of CD44+/CD24- cells in residual tumors [7]: reduction
- ALDEFLUOR-positive population [8]: np any effect
- cell viability (MTT) (HCC1954 cells [9]): decrease in cell viability was observed after 3 days of treatment; also recorded: significant reduction
- viability at 0.1 µM (SUM159 cell line; Homo sapiens, SUM159, 120 h, read-out: cells remaining viable / cell viability (MTT)): 3%
- cell viability over time (one, three, five days) (SUM159 cell line; SUM159, repertaxin 100 nM): loss of cell viability beginning three days after treatment; also recorded: decrease in cell viability was observed after 3 days of treatment
